In patent publication US8193372B2, “Phosphothiophene and phosphothiazole HCV polymerase inhibitors” (Idenix Pharmaceuticals, Inc., priority 2009, dated 2012):

Key:
[1] = in vitro; conditions: human
[2] = tested on: HCV Con1 subgenomic replicon of genotype 1b (GS4.1 cells); assay: microbe, parasite or virus in culture; assay type: cell-based, HCV genotype 1b; conditions: Hepatitis C virus; for EC50: 72 h
[3] = tested on: Huh-7-derived cell line (Zluc) that harbors an HCV genotype 1b replicon and a luciferase reporter gene; assay: microbe, parasite or virus in culture; assay type: cell-based; conditions: Hepatitis C virus, 72 h
[4] = tested on: Huh-7-derived cell line (Zluc) that harbors an HCV genotype 1b replicon and a luciferase reporter gene; assay: microbe, parasite or virus in culture; assay type: cell-based; conditions: Hepatitis C virus, 72 h; remark: listed apart in the source
[5] = Cytotoxicity (CC50) reported with the HCV replicon ELISA assay; conditions: human

SMILES	CC50 [1] [µM]	IC50 [2] [µM]	EC50 [2] [µM]	EC50 [3] [µM]	EC50 [4] [µM]	CC50 at 72 hr [5] [µM]
COP(=O)(Nc1cc(-c2ccc(Cl)cc2Cl)sc1C(=O)O)c1ccc(C)cc1C (stereo not shown) [Compound 151]	> 8.3	0.1 to 8.3	> 8.3	–	–	–
COP(=O)(Nc1cc(-c2ccc(-c3cc4ncccc4o3)cc2)sc1C(=O)O)c1ccc(C)cc1C (stereo not shown) [Compound 152]	> 8.3	< 0.1	< 0.1	< 0.1	< 0.1	–
COP(=O)(Nc1cc(-c2ccc(-c3cc4ccccc4s3)cc2)sc1C(=O)O)c1ccc(C)cc1C (stereo not shown) [Compound 153]	> 8.3	< 0.1	< 0.1	< 0.1	0.1 to 8.3	–
COP(=O)(Nc1cc(-c2ccc(CC(C)C)cc2)sc1C(=O)O)c1ccc(C)cc1C (stereo not shown) [Compound 154]	> 8.3	0.1 to 8.3	> 8.3	–	–	–
COP(=O)(Nc1cc(-c2ccc(Cl)cc2)sc1C(=O)O)c1ccc(C)cc1C (stereo not shown) [Compound 155]	> 8.3	< 0.1	0.1 to 8.3	0.1 to 8.3	> 8.3	–
COP(=O)(Nc1cc(-c2ccc(C(C)(C)C)cc2)sc1C(=O)O)c1ccc(C)cc1C (stereo not shown) [Compound 156]	> 8.3	0.1 to 8.3	0.1 to 8.3	0.1 to 8.3	> 8.3	–
CCOP(=O)(Nc1cc(-c2cc3ccccc3s2)sc1C(=O)O)c1ccc(Cl)cc1Cl (stereo not shown) [Compound 157]	> 8.3	0.1 to 8.3	> 8.3	–	–	–
CCOP(=O)(Nc1cc(-c2ccc(OCc3ccccc3)cc2)sc1C(=O)O)c1ccc(Cl)cc1Cl (stereo not shown) [Compound 158]	> 8.3	0.1 to 8.3	0.1 to 8.3	–	–	–
COP(=O)(Nc1cc(-c2ccccc2)sc1C(=O)O)c1ccc(Cl)cc1Cl (stereo not shown) [Compound 159]	> 8.3	0.1 to 8.3	> 8.3	–	–	–
CCOP(=O)(Nc1cc(-c2ccc(-c3cc4ncccc4o3)cc2)sc1C(=O)O)c1ccc(Cl)cc1F (stereo not shown) [Compound 160]	> 8.3	< 0.1	< 0.1	< 0.1	0.1 to 8.3	–
CCOP(=O)(Nc1cc(-c2ccc(Cl)c(Cl)c2)sc1C(=O)O)c1ccc(Cl)cc1Cl (stereo not shown) [Compound 161]	> 8.3	0.1 to 8.3	> 8.3	–	–	–
COP(=O)(Nc1cc(-c2ccccc2)sc1C(=O)O)c1ccc(C)cc1C (stereo not shown) [Compound 162]	–	–	–	0.1 to 8.3	> 8.3	–
CCOP(=O)(Nc1cc(-c2ccc(Cl)cc2)sc1C(=O)O)c1ccc(Cl)cc1Cl (stereo not shown) [Compound 163]	> 8.3	0.1 to 8.3	0.1 to 8.3	–	–	–
COP(=O)(Nc1cc(-c2ccc(-c3cc4ncccn4n3)cc2)sc1C(=O)O)c1ccc(C)cc1C (stereo not shown) [Compound 169]	–	–	–	< 0.1	< 0.1	–
CCOP(=O)(Nc1cc(-c2ccc(F)cc2)sc1C(=O)OC)c1ccc(Cl)cc1Cl (stereo not shown) [Compound 170]	> 8.3	–	> 8.3	–	–	–
COC(=O)c1sc(-c2ccc(F)cc2)cc1NP(=O)(OC(C)C)c1ccc(C)cc1C (stereo not shown) [Compound 171]	–	> 8.3	> 8.3	–	–	> 8.3
COC(=O)c1sc(-c2ccc(F)cc2)cc1NP(=O)(OC)c1ccc(C)cc1C (stereo not shown) [Compound 172]	> 8.3	> 8.3	> 8.3	–	–	–
CCOP(=O)(Nc1cc(-c2ccc(F)cc2)sc1C(=O)OC)c1ccc(C)cc1C (stereo not shown) [Compound 173]	> 8.3	> 8.3	> 8.3	–	–	–
COP(=O)(Cc1cc(-c2ccc(-c3cc4ncccc4o3)cc2)sc1C(=O)O)c1ccc(C)cc1C (stereo not shown) [Compound 174]	> 8.3	< 0.1	< 0.1	–	–	–
CCOP(=O)(Cc1cc(-c2ccc(-c3cc4ncccn4n3)cc2)sc1C(=O)O)c1ccc(C)cc1C (stereo not shown) [Compound 175]	> 8.3	< 0.1	0.1 to 8.3	–	–	–
COP(=O)(Cc1cc(-c2ccc(F)cc2)sc1C(=O)O)c1ccc(C)cc1C (stereo not shown) [Compound 176]	> 8.3	0.1 to 8.3	> 8.3	–	–	–
COP(=O)(Cc1cc(-c2ccccc2)sc1C(=O)O)c1ccc(C)cc1C (stereo not shown) [Compound 177]	> 8.3	0.1 to 8.3	> 8.3	–	–	–
CCOP(=O)(Cc1cc(-c2ccccc2)sc1C(=O)O)c1ccc(C)cc1C (stereo not shown) [Compound 178]	> 8.3	0.1 to 8.3	> 8.3	–	–	–
CCOP(=O)(Cc1cc(-c2ccc(F)cc2)sc1C(=O)O)c1ccc(C)cc1C (stereo not shown) [Compound 179]	> 8.3	0.1 to 8.3	> 8.3	–	–	–
